Data set [1] in a line: Relaxivity of contrast agent at 7 T. Format: physicochemical. From the text:
The use of a paramagnetic gadolinium chelate-loaded SapC-DOPS (Gd-DTPA-BSA/SapC-DOPS) vesicles as a targeted contrast agent for imaging glioblastoma multiforme tumors are also useful in the present invention. Gd-DTPA-BSA/SapC-DOPS vesicles and Gd-DTPA display a similar relaxivity of 3.32 and 2.80 (s·mM)−1, respectively, at 7 T. According to the in vivo experiments, the R1 values of the tumor before injection of Gd-DTPA-BSA/SapC-DOPS vesicles, sham injected brain, and contralateral normal brain were 0.4676±0.010 s−1, 0.5216±0.034 s−1, and 0.5596±0.003 s−1, respectively. […] At 24 h postinjection, the tumor R1 remained elevated (7.9±1.5%, P<0.05) compared with the normal and sham brains, but it was statistically similar to the controls (4.7±2.0%, p>0.05). […] At 4 h, 10 h, and 20 h, the increase in T1 relaxation time is higher in the sham normal brain compared with sham tumor. By 24 h postinjection, the T1-weighted signal is similar in both tissues.

Data set [2] relates to non-small cell lung cancer (NSCLC). The conditions noted are these: cited from earlier work.
Data set [3] has as its system HER2-negative breast cancer. The settings on record: phase I, cited from earlier work.

Molecule `O=C([O-])CN(CCN(CC(=O)[O-])CC(=O)O)CCN(CC(=O)[O-])CC(=O)O.[Gd+3]` [Gd-DTPA] yielded a relaxivity in data set [1] of 2.80 s/mM.
“Bavituximab: chimeric monoclonal antibody that binds to PS”: the “overall survival, Bavituximab + docetaxel versus docetaxel alone” value in data set [2] (advanced, previously treated NSCLC, phase III) was “no significant difference”. In data set [2] (patients pre-treated with immune checkpoint inhibitors), the “overall survival versus placebo-treated patients” value is reported as “increased overall survival”. Besides, the overall response rate in data set [3] (with paclitaxel as adjuvant therapy) is listed as 85%. Besides, the tolerability entry in data set [3] (with paclitaxel) is “well tolerated”.

Values taken from US12172007B2, “Combination therapy of electric fields and an additional treatment for cancer and imaging” (University of Cincinnati, priority 2019, dated 2024).
